Patent US7169787B2, “7-azaindoles, use thereof as phosphodiesterase 4 inhibitors and method for producing the same” (Elbion AG, priority 2000, dated 2007)
pIC50: −log10 of the molar value.

Legend:
PDE 4 = experiment: Inhibition of phosphodiesterase 4 (enzyme preparation from human PMNL, [3H]-cAMP); format: biochemical; conditions: PDE 4 from human PMNL cytosol, 0.5 μM [3H]-cAMP
Protocol: The PDE 4 activity is determined in enzyme preparations from human polymorphonuclear […] (PMNL) and the PDE 2, 3 and 5 activity is determined with PDE from human thrombocytes. Human blood was anti-coagulated with citrate. By centrifuging at 700×g for 20 minutes at room temperature, the thrombocyte-rich plasma in the supernatant is separated from the erythrocytes and leukocytes. The thrombocytes are lysed by ultrasound and used in the PDE 3 and PDE 5 assays. For the determination of the PDE 2 activity, the cytosolic thrombocyte fraction is purified on an anionic exchange column by means of NaCl gradients and the PDE 2 peak is obtained for the assay. The PMNLs for the PDE 4 determination are isolated by a subsequent dextran sedimentation, followed by a gradient centrifugation with Ficoll-Paque. After the cells have been washed twice, the erythrocytes, still contained, are lysed within 6 minutes at 4° C. by the addition of 10 mL of hypotonic buffer (155 mM of NH4Cl, 10 mM of NaHCO3, 0.1 mM of EDTA, pH=7.4). The PMNLs, which are still intact, are washed twice with PBS and lysed with ultrasound. The supernatant of a one-hour centrifugation at 4° C. at 48,000×g contains the cytosolic fraction of the PDE 4 and is used for the PDE 4 measurements.
The phosphodiesterase activity is determined using the method described by Thompson et al. with some modifications (Thompson, W. J. and M. M. Appleman, Assay of cyclic nucleotide phosphodiesterase and resolution of multiple molecular forms of the enzyme, Adv. Cycl. Nucl. Res. 1979, 10, 69–92).
The reaction mixtures contain 50 mM of tris hydrochloride (pH 7.4), 5 mM of magnesium chloride, the inhibitors in various concentrations, the corresponding enzyme preparation as well as the further components necessary for determining the individual isoenzymes (see below). The reaction is started by the addition of the substrate, 0.5 μM of [^3H]-cAMP or [^3H]-cGMP (approximately 6000 CPM per test). The final volume is […]. Test substances are mixed as stock solutions in DMSO. The DMSO concentration in the reaction mixture is 1% v/v. The PDE activity is not affected by this concentration of DMSO. After the reaction is started by the addition of substrate, samples are incubated for 30 minutes at 37° C. The reaction is stopped by heating the test tubes for 2 minutes at 110° C. The samples remain for a further 10 minutes in ice. The addition of 30 μL of 5′-nucleotidase (1 mg/mL, from a poisonous snake suspension from Crotalus adamanteus) is followed by a 10-minutes incubation at 37° C. The samples are stopped on ice, in each case 400 μL of a mixture of Dowex, water and ethanol (1+1+1) is added, mixed well and incubated once again for 15 minutes on ice. The reaction vessels are centrifuged for 20 minutes at 3000×g. Aliquots of the supernatant (200 μL) are transferred directly to scintillation vessels. After the addition of 3 mL of scintillator, the samples are measured in the beta counter.
[^3H]-cAMP is used as substrate for the determination of the PDE 4, 3 and 2 activity and [^3H]-cGMP is used as substrate for the determination of the PDE 5 activity. The enzyme activities, which are nonspecific in each case, are determined in the presence of 100 μM of Rolipram for the determination of PDE 4 and in the presence of 100 μM of IBMX for the determination of the PDE 3 and 5 and subtracted from the test values. The incubation formulations of the PDE 3 assays contained 10 μM of Rolipram, in order to inhibit possible contaminations by PDE 4. The PDE 2 is tested with an SPA assay of the Amersham Company. The assay is carried out in the presence of the activator of the PDE 2 (5 μM of cGMP).

Compound	pIC50 (PDE 4)	melting point [°C]
O=C(Nc1c(Cl)cncc1Cl)C(=O)c1cn(Cc2ccc(F)cc2)c2ncccc12 [Example 14]	8.40	–
CC(C)Cn1cc(C(=O)C(=O)Nc2c(Cl)cncc2Cl)c2cccnc21 [Example 27]	8.70	152 to 154
